# Results: ChEMBL document CHEMBL5303711, “ECBD screening data for assay EOS300108” (2023)
# Counter-ions that a name gives are not always drawn. Activity calls are given as the source filed them. The rule behind the calls is not given here.
# Test: Cytotoxicity activity against human HepG2 cells assessed by CellTiter-Glo luminescent cell viability assay.
# Type: toxicity, cell-based
# Set-up: assay stage confirmatory assay, source tissue liver
# Details: HepG2 cells, read-out: IC50 relative
row,SMILES,CC50
1,COc1ccc(C(=O)N2CCN(Cc3noc(-c4ccc(F)cc4)n3)CC2)cc1,4.5 µM (active)
2,Nc1nc(Nc2ccc3c(c2)CC[C@@H](N2CCCC2)CC3)nn1-c1cc2c(nn1)-c1ccccc1CCC2 [BEMCENTINIB],1.2 µM (active)
3,CCCCc1cc(NC(=O)[C@H]2CC(=O)N(Cc3ccccc3)C2)[nH]n1,1.8 µM (active)
4,CN(c1ccc(-c2csc(NC(=O)CCc3ccco3)n2)cc1)S(C)(=O)=O,6 µM (active)
5,OCCN1CCN(CCCN2c3ccccc3Sc3ccc(C(F)(F)F)cc32)CC1 [FLUPHENAZINE HYDROCHLORIDE],3.2 µM (active)
6,CN1CCc2nc(C(=O)c3nc4c(s3)CN(C)CC4)sc2C1,0.5 µM (active)
7,COc1ncc(-c2ccc3nccc(-c4ccnnc4)c3c2)cc1NS(=O)(=O)c1ccc(F)cc1F [OMIPALISIB],0.1 µM (active)
8,Cc1[nH]c(C(=O)Nc2ccc(C#N)cc2)c(C)c1S(=O)(=O)N1CCCC1,17.9 µM (inactive)
9,NC(=O)c1cc(-c2csc(Nc3ccccc3)n2)ccc1O,14.2 µM (inactive)
10,CCN(C(=O)c1ccc(-n2ccnc2)nc1)S(=O)(=O)c1ccc(C)cc1,11.7 µM (inactive)
11,O=C1CN2C(=C1c1nc3ccccc3s1)NC(=O)c1sccc12,3.7 µM (active)
12,C[C@@H]1COC(Nc2ccc3ncnc(Nc4ccc(OCc5nccs5)c(Cl)c4)c3c2)=N1 [VARLITINIB],50 µM (inactive)
13,O=c1oc(-c2ccccc2)cc(Cl)c1Cl,5.5 µM (active)
14,COc1cc2c(cc1-c1c(C)noc1C)ncc1[nH]c(=O)n([C@H](C)c3ccccn3)c12,1.4 µM (active)
15,Cn1c(C#N)ccc1-c1ccc2c(c1)C(C)(C)OC(=S)N2 [TANAPROGET],4.6 µM (active)
16,Cc1cc(Nc2nc(N[C@@H](C)c3ncc(F)cn3)ncc2Cl)n[nH]1 [AZD-1480],7.9 µM (active)
17,COc1cccc(C(=O)/N=c2\sc(C)c(C)n2Cc2ccc(C(=O)NCCN(C)C)o2)c1,12.2 µM (active)
18,CCN1/C(=C/c2ccc3ccccc3[n+]2CC)C=Cc2ccccc21,1 µM (active)

row,SMILES,CC50
1,C#CCOC1CCN(C(=O)c2ccc(F)c(Br)c2)CC1,8.6 µM (active)
2,CN(C)c1ccc2nc3ccc(=[N+](C)C)cc-3sc2c1 [METHYLENE BLUE ANHYDROUS],3 µM (active)
3,CC(C)[C@H](CO)Nc1nc(Nc2cccc(Cl)c2)c2ncn(C(C)C)c2n1 [PURVALANOLA],14.4 µM (active)
4,CCCCOc1ccc(C(=O)N2CCN(S(=O)(=O)c3ccc4c(c3)OCCCO4)CC2)cc1,3.2 µM (inactive)
5,CC(C)CN1CCN(Cc2nc(Cn3ccn4nc(-c5ccccc5)cc4c3=O)no2)CC1,13.6 µM (active)
6,CN(C)S(=O)(=O)c1ccc2oc(SCCOc3ccccc3)nc2c1,10 µM (active)
7,c1cc(NC2CCNCC2)nc(-c2cnc3ccccn23)c1,4.5 µM (active)
8,O=C(Nc1ncccc1O)c1ccc(OCc2cn3ccccc3n2)cc1,6.7 µM (active)
9,CNCCCC12CCC(c3ccccc31)c1ccccc12 [MAPROTILINE HYDROCHLORIDE],4.7 µM (active)
10,Cc1ccc(C)c(-c2cc(C(F)(F)F)nn2-c2ccc(S(N)(=O)=O)cc2)c1 [DIMETHYL CELECOXIB],18.1 µM (inactive)
11,O=C(Nc1n[nH]c(C2CC2)n1)C1CC(=O)N(c2ccc(Br)cc2)C1 (stereo not given),1.8 µM (active)
12,CCn1c(=O)c2sc(N3CCCC3)nc2n(CC(=O)Nc2ccc(OC)cc2)c1=O,31.4 µM (inactive)
13,Cc1ccc(NC(=O)NC[C@@H](C(C)C)N2CCN(C)CC2)cc1Cl,11.3 µM (active)
14,O=C1C=C(N(CCO)Cc2ccccc2)c2ccccc2C1=O,4.4 µM (active)
15,COc1ccc(OC)c(C2CC(c3c(O)[nH]c(=O)n(C4CCCCC4)c3=O)=NN2)c1 (stereo not given),5.7 µM (active)
16,CCCc1cnc(NC(=O)CCc2nnc(-c3ccsc3)o2)s1,8.5 µM (active)
17,Nc1ncccc1-c1nc2ccc(-c3ccccc3)nc2n1-c1ccc(C2(N)CCC2)cc1 [MIRANSERTIB],4.2 µM (active)
